According to ChEMBL document CHEMBL3352089 (J Med Chem, 2014):

What was measured:
[1] = Cytotoxicity against human HepG2 cells assessed as cell viability at 1 uM after 4 hrs by Cell-Titer Glo assay; format: cell-based; details: read-out: Activity
[2] = Cytotoxicity against human HepG2 cells assessed as cell viability at 10 uM after 4 hrs by Cell-Titer Glo assay; format: cell-based; details: read-out: Activity
[3] = Cytotoxicity against human HepG2 cells assessed as cell viability at 100 uM after 4 hrs by Cell-Titer Glo assay; format: cell-based; details: read-out: Activity
[4] = Cytotoxicity against human HepG2 cells assessed as cell viability at 1 uM after 24 hrs by Cell-Titer Glo assay; format: cell-based; details: read-out: Activity
[5] = Cytotoxicity against human HepG2 cells assessed as cell viability at 10 uM after 24 hrs by Cell-Titer Glo assay; format: cell-based; details: read-out: Activity
[6] = Cytotoxicity against human HepG2 cells assessed as cell viability at 100 uM after 24 hrs by Cell-Titer Glo assay; format: cell-based; details: read-out: Activity
[7] = tested on: T1, Activin receptor type-1 (Homo sapiens), Q04771 [Q207D]
T1 sequence (whole entry): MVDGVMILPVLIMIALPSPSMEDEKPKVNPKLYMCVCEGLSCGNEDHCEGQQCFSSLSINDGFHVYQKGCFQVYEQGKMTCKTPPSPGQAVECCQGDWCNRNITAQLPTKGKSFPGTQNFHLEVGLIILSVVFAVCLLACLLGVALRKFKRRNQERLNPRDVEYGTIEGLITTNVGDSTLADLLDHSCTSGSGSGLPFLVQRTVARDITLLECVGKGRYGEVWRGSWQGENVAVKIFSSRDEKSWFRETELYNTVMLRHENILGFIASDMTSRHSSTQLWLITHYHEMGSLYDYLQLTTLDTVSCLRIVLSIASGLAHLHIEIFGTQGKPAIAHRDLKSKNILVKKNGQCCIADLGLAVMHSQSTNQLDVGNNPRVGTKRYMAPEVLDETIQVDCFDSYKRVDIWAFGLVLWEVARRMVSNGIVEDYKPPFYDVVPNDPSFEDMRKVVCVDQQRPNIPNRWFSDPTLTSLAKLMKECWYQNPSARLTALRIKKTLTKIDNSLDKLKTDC

Structure (SMILES) | viability at 4 h, 1 µM [1] | viability at 4 h, 10 µM [2] | viability at 4 h, 100 µM [3] | viability at 24 h, 1 µM [4] | viability at 24 h, 10 µM [5] | viability at 24 h, 100 µM [6] | ΔTm [7]
CNc1ncc(-c2ccc(N3CCNCC3)cc2)cc1-c1cc(OC)c(OC)c(OC)c1 | > 75% | > 75% | > 75% | > 75% | > 75% | – | –
COc1cc(-c2cc(-c3ccc(N4CCNCC4)cc3)cnc2N)ccc1Cl | > 75% | > 75% | – | > 75% | > 75% | – | –
COc1cc(-c2cc(-c3cccc(NS(C)(=O)=O)c3)cnc2N)cc(OC)c1OC | > 75% | > 75% | > 75% | > 75% | > 75% | > 75% | –
COc1cc(-c2cc(-c3ccc(O)cc3)cnc2N)cc(OC)c1OC | > 75% | > 75% | > 75% | > 75% | > 75% | > 75% | –
COc1cc(-c2cnn3cc(-c4ccc(N5CCNCC5)cc4)cnc23)cc(OC)c1OC | > 75% | > 75% | – | > 75% | – | – | –
COc1ccc(-c2cc(-c3ccc(N4CCNCC4)cc3)cnc2N)cc1OC | > 75% | > 75% | > 75% | > 75% | > 75% | – | –
COc1cccc(-c2cc(-c3ccc(N4CCNCC4)cc3)cnc2N)c1 | > 75% | > 75% | > 75% | > 75% | > 75% | – | –
COc1cc(-c2cc(-c3cccc(O)c3)cnc2N)cc(OC)c1OC | > 75% | > 75% | > 75% | > 75% | > 75% | – | 13.2 °C
Cc1ccc(Nc2nccc(N(C)c3ccc4c(C)n(C)nc4c3)n2)cc1S(N)(=O)=O [PAZOPANIB] | > 75% | > 75% | > 75% | > 75% | > 75% | > 75% | –
COc1cc2ncnc(Nc3ccc(F)c(Cl)c3)c2cc1OCCCN1CCOCC1 [GEFITINIB] | > 75% | > 75% | > 75% | > 75% | > 75% | > 75% | –
Nc1ncc(-c2ccc(N3CCNCC3)cc2)cc1-c1ccc2c(c1)OCCO2 | > 75% | > 75% | > 75% | > 75% | > 75% | – | –
COc1ccc(-c2cc(-c3ccc(N4CCNCC4)cc3)cnc2N)cc1 | > 75% | > 75% | – | > 75% | > 75% | – | –
N#CC[C@H](C1CCCC1)n1cc(-c2ncnc3[nH]ccc23)cn1 [RUXOLITINIB] | > 75% | > 75% | > 75% | > 75% | > 75% | – | –
Nc1ncc(-c2cccc(N3CCNCC3)c2)cc1-c1ccnc2ccccc12 | > 75% | > 75% | – | > 75% | > 75% | – | –
COc1cc(-c2cc(-c3ccc(N4CCNCC4)cc3)cnc2OC)cc(OC)c1OC | > 75% | > 75% | – | > 75% | > 75% | – | –
c1ccc2c(-c3cnn4cc(-c5ccc(N6CCNCC6)cc5)cnc34)ccnc2c1 | > 75% | > 75% | – | > 75% | – | – | –
COc1cc(-c2cnc(N)c(-c3cc(OC)c(OC)c(OC)c3)c2)ccc1O | > 75% | > 75% | > 75% | > 75% | > 75% | > 75% | –
Cc1cn(-c2cc(NC(=O)c3ccc(C)c(Nc4nccc(-c5cccnc5)n4)c3)cc(C(F)(F)F)c2)cn1 [NILOTINIB] | > 75% | > 75% | > 75% | > 75% | > 75% | > 75% | –

Structure (SMILES) | viability at 4 h, 1 µM [1] | viability at 4 h, 10 µM [2] | viability at 4 h, 100 µM [3] | viability at 24 h, 1 µM [4] | viability at 24 h, 10 µM [5] | viability at 24 h, 100 µM [6] | ΔTm [7]
C[C@@H](Oc1cc(-c2cnn(C3CCNCC3)c2)cnc1N)c1c(Cl)ccc(F)c1Cl [CRIZOTINIB] | > 75% | > 75% | – | > 75% | > 75% | – | –
COc1cc(-c2cc(-c3ccc(N4CCNCC4)cc3)cnc2N(C)C)cc(OC)c1OC | > 75% | > 75% | > 75% | > 75% | > 75% | – | –
c1cc(-c2cnn3cc(-c4ccc(N5CCNCC5)cc4)cnc23)c2cccnc2c1 | > 75% | > 75% | > 75% | > 75% | > 75% | – | –
COc1cc(-c2cc(-c3ccc(N4CCNCC4)cc3)cnc2N)ccc1C | > 75% | > 75% | – | > 75% | > 75% | – | –
Nc1ncc(-c2ccc(N3CCNCC3)cc2)cc1-c1ccnc2ccccc12 | > 75% | > 75% | > 75% | > 75% | > 75% | – | –
CC(C)Oc1cccc(-c2cc(-c3ccc(N4CCNCC4)cc3)cnc2N)c1 | > 75% | > 75% | – | > 75% | > 75% | – | –
CS(=O)(=O)CCNCc1ccc(-c2ccc3ncnc(Nc4ccc(OCc5cccc(F)c5)c(Cl)c4)c3c2)o1 [LAPATINIB] | > 75% | > 75% | > 75% | > 75% | > 75% | > 75% | –
CNC(=O)c1cc(Oc2ccc(NC(=O)Nc3ccc(Cl)c(C(F)(F)F)c3)cc2)ccn1 [SORAFENIB] | > 75% | > 75% | > 75% | > 75% | > 75% | – | –
COc1cc(-c2cc(-c3cccc(N4CCNCC4)c3)cnc2N)cc(OC)c1OC | > 75% | > 75% | > 75% | > 75% | > 75% | – | –
Nc1ncc(-c2ccc(N3CCNCC3)cc2)cc1-c1cccc2ncccc12 | > 75% | > 75% | > 75% | > 75% | > 75% | – | –
COc1cc(OC)cc(-c2cncc(-c3ccc(N4CCNCC4)cc3)c2)c1 | > 75% | > 75% | – | > 75% | > 75% | – | –
CCN(CC)CCNC(=O)c1c(C)[nH]c(/C=C2\C(=O)Nc3ccc(F)cc32)c1C [SUNITINIB] | > 75% | > 75% | – | > 75% | – | – | –
Cc1nc(Nc2ncc(C(=O)Nc3c(C)cccc3Cl)s2)cc(N2CCN(CCO)CC2)n1 [DASATINIB] | > 75% | > 75% | – | > 75% | – | – | –
CCCS(=O)(=O)Nc1ccc(F)c(C(=O)c2c[nH]c3ncc(-c4ccc(Cl)cc4)cc23)c1F [VEMURAFENIB] | > 75% | > 75% | > 75% | > 75% | > 75% | – | –
COc1cc(-c2cc(-c3ccc(N4CCNCC4)cc3)cnc2Cl)cc(OC)c1OC | > 75% | > 75% | > 75% | > 75% | > 75% | – | –
COc1cc(OC)cc(-c2cc(-c3ccc(N4CCNCC4)cc3)cnc2N)c1 | > 75% | > 75% | – | > 75% | > 75% | – | –
C#Cc1cccc(Nc2ncnc3cc(OCCOC)c(OCCOC)cc23)c1 [ERLOTINIB] | > 75% | > 75% | > 75% | > 75% | > 75% | > 75% | –
